Data published in US10941113B2, “Sulfamoyl-arylamides and the use thereof as medicaments for the treatment of hepatitis B” (Janssen Sciences Ireland UC, priority 2013, dated 2021).

Legend:
Type in all cases: cell-based
HBV [1] = assay: Anti-HBV activity, HepG2.2.15 stable transfected cell line, HBV DNA from secreted virions by realtime PCR; conditions: Hepatitis B virus, 144 h, HepG2.2.15 cells, 6 days of treatment
HBV [2] = assay: Anti-HBV activity, HepG2.117 inducible HBV producing cell line (Tet-off), intracellular HBV DNA by realtime PCR; conditions: Hepatitis B virus, 72 h, HepG2.117 cells, 3 days of treatment
[3] = Cytotoxicity in HepG2 cells, Resazurin assay; conditions: human, incubated 4 days, Resazurin viability

Compound: COC(=O)CCC(C)NS(=O)(=O)c1cccc(C(=O)Nc2ccc(F)c(C)c2)c1 (stereo not drawn) [Compound 8]
- EC50 (HBV [1]): 1.4 µM
- EC50 (HBV [2]): 2.8 µM
- CC50 at 4 days [3]: > 25 µM

Compound: CCC(C)(CO)NS(=O)(=O)c1cccc(C(=O)Nc2ccc(F)c(C)c2)c1 (stereo not drawn) [Compound 26]
- EC50 (HBV [1]): 0.39 µM
- EC50 (HBV [2]): 0.34 µM
- CC50 at 4 days [3]: > 25 µM

Compound: Cc1cc(NC(=O)c2cccc(S(=O)(=O)NC(C)C(C)CO)c2)ccc1F (stereo not drawn) [Compound 25]
- EC50 (HBV [1]): 0.25 µM
- EC50 (HBV [2]): 0.57 µM
- CC50 at 4 days [3]: > 25 µM

Compound: Cc1cc(NC(=O)c2cccc(S(=O)(=O)N[C@@H](C)CO)c2)ccc1F [Compound 4b]
- EC50 (HBV [1]): 0.4 µM
- EC50 (HBV [2]): 0.94 µM
- CC50 at 4 days [3]: > 25 µM

Compound: Cc1cc(NC(=O)c2cccc(S(=O)(=O)NC(C)CCO)c2)ccc1F (stereo not drawn) [Compound 13]
- EC50 (HBV [1]): 0.21 µM
- EC50 (HBV [2]): 0.71 µM
- CC50 at 4 days [3]: > 25 µM

Compound: Cc1cc(NC(=O)c2cccc(S(=O)(=O)NCCS(C)(=O)=O)c2)ccc1F [Compound 32]
- EC50 (HBV [1]): 0.19 µM
- EC50 (HBV [2]): 0.64 µM
- CC50 at 4 days [3]: > 25 µM

Compound: Cc1cc(NC(=O)c2cc(S(=O)(=O)N[C@H](C)CO)ccc2C)ccc1F [Compound 38]
- EC50 (HBV [1]): 0.16 µM
- EC50 (HBV [2]): 0.18 µM
- CC50 at 4 days [3]: > 25 µM

Compound: Cc1cc(NC(=O)c2cccc(S(=O)(=O)NC(C)(C)CCO)c2)ccc1F [Compound 15]
- EC50 (HBV [1]): 0.22 µM
- EC50 (HBV [2]): 0.32 µM
- CC50 at 4 days [3]: > 25 µM

Compound: Cc1cc(NC(=O)c2cccc(S(=O)(=O)NC(C)CCCC(C)(C)O)c2)ccc1F (racemic) [Compound 21]
- EC50 (HBV [1]): 0.17 µM
- EC50 (HBV [2]): 1.71 µM
- CC50 at 4 days [3]: > 25 µM

Compound: Cc1cc(NC(=O)c2cccc(S(=O)(=O)NC(C)(C)CC(C)O)c2)ccc1F (stereo not drawn) [Compound 36]
- EC50 (HBV [1]): 0.27 µM
- EC50 (HBV [2]): 0.15 µM
- CC50 at 4 days [3]: > 25 µM

Compound: Cc1cc(NC(=O)c2cccc(S(=O)(=O)N[C@H](C)C(=O)N(C)C)c2)ccc1F [Compound 40]
- EC50 (HBV [1]): 2.28 µM
- EC50 (HBV [2]): 2.66 µM
- CC50 at 4 days [3]: > 25 µM

Compound: Cc1cc(NC(=O)c2cccc(S(=O)(=O)N[C@H](C)CS(C)(=O)=O)c2)ccc1F [Compound 42]
- EC50 (HBV [1]): 0.25 µM
- EC50 (HBV [2]): 0.15 µM
- CC50 at 4 days [3]: > 25 µM

Compound: Cc1cc(NC(=O)c2cccc(S(=O)(=O)N[C@@H](C)C(=O)N(C)C)c2)ccc1F [Compound 35]
- EC50 (HBV [1]): 2.7 µM
- EC50 (HBV [2]): 3.62 µM
- CC50 at 4 days [3]: > 25 µM

Compound: C#CC(C)(C)NS(=O)(=O)c1cccc(C(=O)Nc2ccc(F)c(C)c2)c1 [Compound 16]
- EC50 (HBV [1]): 0.19 µM
- EC50 (HBV [2]): 0.59 µM
- CC50 at 4 days [3]: > 25 µM

Compound: CNCC(C)NS(=O)(=O)c1cccc(C(=O)Nc2ccc(F)c(C)c2)c1 (stereo not drawn) [Compound 2]
- EC50 (HBV [1]): 9.4 µM
- EC50 (HBV [2]): 2.4 µM
- CC50 at 4 days [3]: > 25 µM

Compound: Cc1cc(NC(=O)c2cccc(S(=O)(=O)N[C@@H](C)CNC(=O)OC(C)(C)C)c2)ccc1F [Compound 19]
- EC50 (HBV [1]): 0.74 µM
- EC50 (HBV [2]): 0.5 µM
- CC50 at 4 days [3]: > 25 µM

Compound: COCC(C)(CCO)NS(=O)(=O)c1cccc(C(=O)Nc2ccc(F)c(C)c2)c1 (stereo not drawn) [Compound 27]
- EC50 (HBV [1]): 1.16 µM
- EC50 (HBV [2]): 0.96 µM
- CC50 at 4 days [3]: > 25 µM

Compound: Cc1cc(NC(=O)c2cccc(S(=O)(=O)NC(C)C(C)(C)O)c2)ccc1F (stereo not drawn) [Compound 30]
- EC50 (HBV [1]): 0.26 µM
- EC50 (HBV [2]): 0.17 µM
- CC50 at 4 days [3]: > 25 µM

Compound: Cc1cc(NC(=O)c2cccc(S(=O)(=O)N[C@H](C)CC#N)c2)ccc1F (racemic) [Compound 10a]
- EC50 (HBV [1]): 0.1 µM
- EC50 (HBV [2]): 0.14 µM
- CC50 at 4 days [3]: > 25 µM

Compound: Cc1cc(NC(=O)c2cccc(S(=O)(=O)NC(C)(C)CO)c2)ccc1F [Compound 14]
- EC50 (HBV [1]): 0.38 µM
- EC50 (HBV [2]): 0.53 µM
- CC50 at 4 days [3]: > 25 µM

Compound: COCC(C)NS(=O)(=O)c1cccc(C(=O)Nc2ccc(F)c(C)c2)c1 (stereo not drawn) [Compound 5]
- EC50 (HBV [1]): 0.24 µM
- EC50 (HBV [2]): 0.84 µM
- CC50 at 4 days [3]: > 25 µM

Compound: Cc1cc(NC(=O)c2cccc(S(=O)(=O)NC(C)CC(=O)N(C)C)c2)ccc1F (stereo not drawn) [Compound 39]
- EC50 (HBV [1]): 1.05 µM
- EC50 (HBV [2]): 0.86 µM
- CC50 at 4 days [3]: > 25 µM

Compound: Cc1cc(NC(=O)c2cccc(S(=O)(=O)NCCCC(=O)N(C)C)c2)ccc1F [Compound 17]
- EC50 (HBV [1]): 0.26 µM
- EC50 (HBV [2]): 0.61 µM
- CC50 at 4 days [3]: > 25 µM

Compound: Cc1cc(NC(=O)c2cccc(S(=O)(=O)NC(C)CO)c2)ccc1F (stereo not drawn) [Compound 4, N-(4-fluoro-3-methyl-phenyl)-3-[(2-hydroxy-1-methyl-ethyl)sulfamoyl]benzamide]
- EC50 (HBV [1]): 0.28 µM
- EC50 (HBV [2]): 0.32 µM
- CC50 at 4 days [3]: > 25 µM

Compound: COCCC(C)NS(=O)(=O)c1cccc(C(=O)Nc2ccc(F)c(C)c2)c1 (stereo not drawn) [Compound 24]
- EC50 (HBV [1]): 0.21 µM
- EC50 (HBV [2]): 1.37 µM
- CC50 at 4 days [3]: > 25 µM

Compound: Cc1cc(NC(=O)c2cccc(S(=O)(=O)NC(C)CC#N)c2)ccc1F (racemic) [Compound 10]
- EC50 (HBV [1]): 0.22 µM
- EC50 (HBV [2]): 0.19 µM
- CC50 at 4 days [3]: > 25 µM

Compound: COC(=O)NC[C@H](C)NS(=O)(=O)c1cccc(C(=O)Nc2ccc(F)c(C)c2)c1 [Compound 1b]
- EC50 (HBV [1]): 1.85 µM
- EC50 (HBV [2]): 1.57 µM
- CC50 at 4 days [3]: > 25 µM

Compound: CC(=O)CC(C)NS(=O)(=O)c1cccc(C(=O)Nc2ccc(F)c(C)c2)c1 (stereo not drawn) [Compound 29]
- EC50 (HBV [1]): 0.19 µM
- EC50 (HBV [2]): 0.23 µM
- CC50 at 4 days [3]: > 25 µM

Compound: CC(=O)NCC(C)NS(=O)(=O)c1cccc(C(=O)Nc2ccc(F)c(C)c2)c1 (stereo not drawn) [Compound 9]
- EC50 (HBV [1]): 1.3 µM
- EC50 (HBV [2]): 0.56 µM
- CC50 at 4 days [3]: > 25 µM

Compound: Cc1cc(NC(=O)c2cccc(S(=O)(=O)NCC(C)(C)C(=O)O)c2)ccc1F [Compound 37]
- EC50 (HBV [1]): 2.68 µM
- EC50 (HBV [2]): 3.03 µM
- CC50 at 4 days [3]: > 25 µM

Compound: Cc1cc(NC(=O)c2cccc(S(=O)(=O)N[C@H](C)CNC(=O)OC(C)(C)C)c2)ccc1F [Compound 18]
- EC50 (HBV [1]): 0.2 µM
- EC50 (HBV [2]): 0.19 µM
- CC50 at 4 days [3]: > 25 µM

Compound: CNC(=O)[C@@H](C)NS(=O)(=O)c1cccc(C(=O)Nc2ccc(F)c(C)c2)c1 [Compound 41]
- EC50 (HBV [1]): 2.22 µM
- EC50 (HBV [2]): 1.35 µM
- CC50 at 4 days [3]: > 25 µM

Compound: Cc1cc(NC(=O)c2cccc(S(=O)(=O)N[C@H](C)CO)c2)ccc1F [Compound 4a]
- EC50 (HBV [1]): 0.21 µM
- EC50 (HBV [2]): 0.26 µM
- CC50 at 4 days [3]: > 25 µM

Compound: CCC[C@@H](CO)NS(=O)(=O)c1cccc(C(=O)Nc2ccc(F)c(C)c2)c1 [Compound 12]
- EC50 (HBV [1]): 0.65 µM
- EC50 (HBV [2]): 0.82 µM
- CC50 at 4 days [3]: > 25 µM

Compound: CNC(=O)CCC(C)NS(=O)(=O)c1cccc(C(=O)Nc2ccc(F)c(C)c2)c1 (stereo not drawn) [Compound 7]
- EC50 (HBV [1]): 0.54 µM
- EC50 (HBV [2]): 0.24 µM
- CC50 at 4 days [3]: > 25 µM

Compound: COCC(C)(C)NS(=O)(=O)c1cccc(C(=O)Nc2ccc(F)c(C)c2)c1 [Compound 34]
- EC50 (HBV [1]): 0.54 µM
- EC50 (HBV [2]): 0.64 µM
- CC50 at 4 days [3]: > 25 µM

Compound: COCC(C)(CO)NS(=O)(=O)c1cccc(C(=O)Nc2ccc(F)c(C)c2)c1 (stereo not drawn) [Compound 31]
- EC50 (HBV [1]): 0.48 µM
- EC50 (HBV [2]): 0.47 µM
- CC50 at 4 days [3]: > 25 µM

Compound: Cc1cc(NC(=O)c2cccc(S(=O)(=O)NC(C)C(C)O)c2)ccc1F (stereo not drawn) [Compound 33]
- EC50 (HBV [1]): 0.32 µM
- EC50 (HBV [2]): 0.26 µM
- CC50 at 4 days [3]: > 25 µM

Compound: Cc1cc(NC(=O)c2cccc(S(=O)(=O)N[C@@H](C)C(N)=O)c2)ccc1F [Compound 23]
- EC50 (HBV [1]): 1.1 µM
- EC50 (HBV [2]): 1.43 µM
- CC50 at 4 days [3]: > 25 µM

Compound: Cc1cc(NC(=O)c2cccc(S(=O)(=O)NC(C)CCC(=O)N(C)C)c2)ccc1F (stereo not drawn) [Compound 6]
- EC50 (HBV [1]): 0.18 µM
- EC50 (HBV [2]): 0.11 µM
- CC50 at 4 days [3]: > 25 µM

Compound: Cc1cc(NC(=O)c2cccc(S(=O)(=O)NC(C)CN(C)C)c2)ccc1F (stereo not drawn) [Compound 3]
- EC50 (HBV [1]): 7.5 µM
- EC50 (HBV [2]): 1.1 µM
- CC50 at 4 days [3]: > 25 µM

Compound: COC(=O)NCC(C)NS(=O)(=O)c1cccc(C(=O)Nc2ccc(F)c(C)c2)c1 (stereo not drawn) [Compound 1]
- EC50 (HBV [1]): 0.13 µM
- EC50 (HBV [2]): 0.37 µM
- CC50 at 4 days [3]: > 25 µM

Compound: COC(C)(C)CC(C)NS(=O)(=O)c1cccc(C(=O)Nc2ccc(F)c(C)c2)c1 (stereo not drawn) [Compound 28]
- EC50 (HBV [1]): 0.27 µM
- EC50 (HBV [2]): 1.41 µM
- CC50 at 4 days [3]: > 25 µM

Compound: COC(=O)N(C)CC(C)NS(=O)(=O)c1cccc(C(=O)Nc2ccc(F)c(C)c2)c1 (stereo not drawn) [Compound 20]
- EC50 (HBV [1]): 0.55 µM
- EC50 (HBV [2]): 0.56 µM
- CC50 at 4 days [3]: > 25 µM

Compound: Cc1cc(NC(=O)c2cccc(S(=O)(=O)N[C@H](CO)C(C)C)c2)ccc1F [Compound 11]
- EC50 (HBV [1]): 0.55 µM
- EC50 (HBV [2]): 0.83 µM
- CC50 at 4 days [3]: > 25 µM

Compound: Cc1cc(NC(=O)c2cccc(S(=O)(=O)N[C@H](C)C(N)=O)c2)ccc1F [Compound 22]
- EC50 (HBV [1]): 0.55 µM
- EC50 (HBV [2]): 0.5 µM
- CC50 at 4 days [3]: > 25 µM

Compound: COC(=O)NC[C@@H](C)NS(=O)(=O)c1cccc(C(=O)Nc2ccc(F)c(C)c2)c1 [Compound 1a]
- EC50 (HBV [1]): 0.18 µM
- EC50 (HBV [2]): 0.11 µM
- CC50 at 4 days [3]: > 25 µM
